The record followed here is US12234237B2, “Folate salts” (priority 2018, dated 2025).

The series can be described thus: Solubility of the folate salt in organic (apolar) solvents at 20° C. To be noted: based on total weight of the solution. Here is the method:
Solubility has been determined at 20° C. Apolar solvents or mixtures thereof are for instance glycerol, methanol, ethanol, 1-propanol, 2-propanol and dimethylsulfoxid (DMSO). Apolar solvents are understood as dry solvents, that is without any water content. Apolar solvents may be pure solvents, comprising only one type of apolar solvent or it may be a mixture of at least two of the aforementioned apolar solvents. Polarity is in comparison to the polarity of water.
A high degree of crystallinity means that the crystalline content of the folate salt is higher than 40% based on the total amount of the folate salt.

In the case of `CC(C)(N)CO.CC(C)(N)CO.CN1c2c(nc(N)[nH]c2=O)NC[C@@H]1CNc1ccc(C(=O)N[C@@H](CCC(=O)O)C(=O)O)cc1` [L-MTHF di AMP, 5-Methyl-(6S)-tetrahydrofolic acid di 2-Amino-2-methyl propanol salt], the “Solubility in 1-Propanol” value is 0.1 % w/w, the “Solubility in DMSO” value amounted to 23.1 % w/w, the “Solubility in Ethanol” value was 0.1 % w/w and the “Solubility in Glycerol” value came out at 16.7 % w/w. Besides, the “Solubility in Methanol” value came out at 11.2 % w/w.
On to `CN1c2c(nc(N)[nH]c2=O)NC[C@@H]1CNc1ccc(C(=O)N[C@@H](CCC(=O)O)C(=O)O)cc1.CNCCO.CNCCO` [L-MTHF di NMAE, 5-Methyl-(6S)-tetrahydrofolic acid di N-methylaminoethanol salt], for which the “Solubility in 1-Propanol” value turned out to be 0.1 % w/w, the “Solubility in DMSO” value is 3.5 % w/w, the “Solubility in Ethanol” value came out at 0.2 % w/w and the “Solubility in Glycerol” value is listed as 16.7 % w/w. In addition, the “Solubility in Methanol” value was found to be 3.6 % w/w.
For `CN(C)CCO.CN1c2c(nc(N)[nH]c2=O)NC[C@@H]1CNc1ccc(C(=O)N[C@@H](CCC(=O)O)C(=O)O)cc1` [L-MTHF mono deanol, 5-Methyl-(6S)-tetrahydrofolic Acid Mono 2-Dimethylaminoethanol Salt], in that order: 0.2 % w/w, 24.8 % w/w, 0.2 % w/w, 10.0 % w/w and 2.5 % w/w.
